Measurements published in patent publication US20230287391A1, “KRAB FUSION REPRESSORS AND METHODS AND COMPOSITIONS FOR REPRESSING GENE EXPRESSION” (THE GOVERNING COUNCIL OF THE UNIVERSITY OF TORONTO, priority 2020, published 2023).

Tests used:
Format in all cases: cell-based, human
[1] = system: SV40 promoter driving EGFP expression in HEK293T cells; assay: SV40-EGFP reporter silencing by KRAB-dCas9 fusions in HEK293T cells; settings: KRAB fused to N terminus of dCas9, flow cytometry 21 d after infection
From the text: (§1) The human genome encodes over 350 KRAB domain proteins. It was postulated that KRAB domains would differ in their ability to silence gene expression when fused to dCas9. 57 human KRAB domains were individually fused to the N terminus of dCas9 and assayed for activity when recruited to one of two different genomically integrated reporter constructs. In one, they were recruited to a SV40 promoter driving EGFP expression in HEK293T cells, and in the other tethered to a 7×TetO array downstream of the polyadenylation site of a PGK1-EGFP-pA reporter in K562 cells (FIG. 1a). KRAB domains had strikingly different effects, spanning from almost complete silencing to no change at all (FIG. 1b,c and FIG. 5). The differences were not explained by expression levels of the dCas9 fusion (FIG. 3). […] KRAB was also fused to the C-terminus of dCas9 with similar results (see Example 5 and FIG. 3).
(§2) Cell culture. All HEK293T cells, including the SV40-EGFP reporter cell line (gift from Lei Stanley Qi lab, Stanford University), were maintained in Dulbecco's Modified Eagle's Medium (DMEM) with 10% fetal bovine serum (FBS), and 1% penicillin-streptomycin. Since the SV40-EGFP reporter cell line was originally generated with a random integration of lentivirus, a clonal line was made to ensure homogeneously high expression levels of EGFP and its targeting gRNA. […]

[2] = system: 7×TetO array downstream of the polyadenylation site of a PGK1-EGFP-pA reporter in K562 cells; assay: PGK1-EGFP-pA reporter silencing by KRAB-dCas9 fusions tethered to a 7xTetO array in K562 cells; settings: KRAB fused to N terminus of dCas9
From the text: as §1, §2

HEK293T cells = assay: Genome-wide CRISPRi cell viability dropout screen (Dolcetto Set A); settings: depletion of gRNAs for gold-standard essential vs non-essential genes after 21 days
From the text: Finally, the performance of the three KRAB effector constructs was investigated in a large-scale unbiased screen. […] These cells were infected with the recently described Dolcetto Set A gRNA library targeting 18,901 genes with three gRNAs per gene and measured gRNA depletion after 21 days. The relative depletion of gRNAs targeting gold-standard essential genes and non-essential genes with each construct was compared with receiver operating characteristics (ROC) curves. […] It should be noted that the AUROC values reported here are somewhat lower than what has been reported for CRISPRi screens in other cell lines like K562 and […] but in line with the previously conducted screen in HEK293T cells (FIG. 2D, E). The lower efficiency may be due to the lower expression level of TRIM28 in HEK293T cells (FIG. 3).
CRISPRi. Viral titer for each cell line was determined on 15-cm dishes with a range of virus volumes (0, 50, 100, 150, 200, 250 and 500 μl). Validated HEK293T cells with heterogeneous expression of each repressor-dCas9 derivative was transduced at a dose resulting in ˜30% […]. Selection was done with 1 μg/ml puromycin 24 hrs post transduction resulting in complete selection within 48-72 hrs (TO). At ˜30% infection efficiency, enough cells were transduced to achieve an initial representation of >500-fold for each dCas9 variant. […]

[3] = system: SV40-EGFP reporter cell line; assay: ABA-induced recruitment of KRAB-PYL1 to ABI1-dCas9 at the SV40-EGFP reporter
From the text: The difference in KRAB-domain activity might be explained either by their intrinsic potency or by their distinct temporal dynamics. […] The interaction between plant proteins […] and PYL1 is induced by abscisic acid (ABA) in a reversible manner (FIG. 1f). A clonal SV40-EGFP reporter cell line expressing ABI1—dCas9 and a gRNA targeting two sites on the SV40 promoter was generated. These cells were then infected with either ZIM3 or KOX1 KRAB domain fused to PYL1 and treated with ABA for 20 d (FIG. 1g, solid lines). […] When ABA was withdrawn after 9d, derepression occurred with similar dynamics with both KRAB domains (FIG. 1g, dashed lines). Thus, the difference in KRAB-domain potency is not due to slower dynamics of KOX1 KRAB induced repression. […] This is consistent with previous studies showing that KRAB domains can mediate silencing via both reversible and irreversible mechanisms.

KOX1 KRAB: KRAB domain from KOX1 (ZNF10) fused to dCas9, used in current implementations of CRISPRi
repression of EGFP reporter [1]: not a particularly strong repressor | repression of EGFP reporter ([1]; listed as KOX1): did not repress the reporter very robustly | repression of EGFP reporter [2]: not a particularly strong repressor | AUROC (gRNA-level) (HEK293T cells): 0.62 | AUROC (gene-level) (HEK293T cells): 0.66

ZIM3 KRAB-PYL1: ZIM3 KRAB domain fused to PYL1 (SEQ ID NO: 16), recruited to ABI1-dCas9 by abscisic acid
level of EGFP repression ([3]; 100 μM ABA for 20 d, compared with KOX1 KRAB-PYL1): higher level of repression | EGFP expression relative to the original levels ([3]; after 40-d silencing followed by ABA washout): 10%
